Series [1] concerns STAT-3, ERK and Akt phosphorylation in MM.1S cells. Put plainly: Western blotting of IL-6 / IGF-1 growth signaling. It counts as cell-based, human. Conditions: 10 ug/ml HNK for 3 and 6 h, then IL-6 (10 ng/ml) or IGF-1 (25 ng/ml). Background: In western blotting, separated proteins are transferred to a membrane and probed.
The subject of another series is AMP kinase in PC3 cells. Description: AMPK activation (Western blot). The series is classed as cell-based, human. Conditions: normoxic and hypoxic conditions. The protocol:
Bharti, A. C. et al (2004) Blood 103, 3175-3184; Arbiser, J. L et al (1998) Mol. Med. 4, 376-383; Woods, A. et al (2003) Current Biology 13, 2004-2008; Shaw, R. J. et al (2004) PNAS 101, 3329-3335; Buzzai, M. et al (2005) Oncogene 24, 4165-4173). […] PC3 cells were treated with honokiol in normoxia (left) or hypoxia (right). In both cases, HIF-1a induction is dose dependent, and in the case of hypoxia, at least additive. Compounds can be tested on the p53 deficient PC3 human prostate cancer cell line, to see whether treatment results in activation of AMPK as in FIG. 20. PC3 cells can be treated with compound or vehicle for 24 hours, then proteins harvested and analyzed by Western blot for phosphorylation of the alpha subunit of AMPK, a marker of AMPK activation. In addition, phosphorylation of a substrate of AMPK, acetyl CoA carboxylase (ACC) can be monitored by Western blot.

The test system of series [2] is MCF-7 and MDA-MB-231 breast cancer cell lines. Put plainly: MTT assay of drug combinations (additive model). The series is classed as cell-based. The method, then:
3-(4,5-dimethylthiazol-2-yl)-2,5-diphenyltetrazolium bromide (MTT) proliferation assays: 3×10^3 cells/well were plated in 96-well plates, cultured in the appropriate culture media containing 10% FCS, and treated with either control vehicle or various concentrations of HNK, alone or with a secondary drug, as indicated. All secondary drugs were freshly diluted in growth media and immediately added to cells along with the HNK. After 24 hours of incubation at 37° C., 5% CO2, the cells were cultured for four hours with 10% MTT reagent (5 mg/ml; Sigma-Aldrich, St. Louis, Mo.). The medium was aspirated, and the cells were dissolved by dimethyl sulfoxide (DMSO). Absorbance of the formazan product was measured by an enzyme-linked immunosorbent assay reader (Macintosh).
Model for drug interactions in vitro: The analysis of interaction between two drugs was conducted using the additive model (Xu D., et al. Cancer Lett. 2006 Jan. 7; [Electronic publication; ahead of print]; Sutherland, R. L., et al. Cancer Res. 1983 September; 43(9):3998-4006). The model predicts the effect of a combination to be equal to the product of the effect of its constituents. […] A ratio between the observed and the predicted viability by the additive model was calculated for all combinations. […]
In general terms: Tetrazolium dyes change colour on reduction, which living cells bring about.

The test system of a further series is MDA-MB-231 cells. Description: MDA-MB-231 tumors in nude mice. It counts as in vivo. The method, then:
FIG. 36 is a graph of tumor volume over weeks of tumors in mice. MDA-MB-231 cells were injected into both flanks of athymic nude mice. The mice were treated with daily I.P. injections of either a vehicle (n=5) or HNK (2 mg/d, n=5) for four weeks.
Animal studies: All animals were maintained and animal experiments were performed under NIH and institutional guidelines established for the Animal Core Facility at the Cedars-Sinai Medical Center. MDA-MB-231 cells were harvested, washed twice with sterile PBS, counted and re-suspended in Matrigel (BD Biosciences, San Jose, Calif.). Six-week-old female athymic nude mice were injected subcutaneously in both flanks with cells at a density of 1×10^6 viable cells/100 μl. […] Tumor size was measured with a linear caliper for up to 5 weeks, and the volume was estimated by using the equation V=(a×b2)×0.5236, where “a” is the larger dimension and “b” the perpendicular diameter.
In vivo activity of HNK against human breast cancer. MDA-MB-231 cells were injected on both flanks of nude mice (1×10^6 cells per injection, five mice per group, two tumors in each mouse), and tumor growth was monitored weekly. […] The mice were treated with daily injections of either 2 mg HNK (100 mg/kg) or a control vehicle for four weeks; and the tumors were measured weekly.

The subject of series [3] is SHSY5Y and SHEP neuroblastoma cells. Put plainly: cancer cell viability, TSA in combination with honokiol. The series is classed as cell-based. The conditions noted are these: 0-1 uM TSA alone or in combination with honokiol. The text has this: In FIG. 43, the effects on cancer cell viability after treatment with trichostatin A (TSA), a histone deacetylase inhibitor, in combination with honokiol were examined.

Consider `C=CCc1ccc(O)c(-c2ccc(O)c(CC=C)c2)c1` [HNK, Honokiol], for which the “phosphorylation induced by IL-6 and IGF-1” value in series [1] was “significantly reduced phosphorylation of STAT-3, ERK and Akt induced by IL-6, as well as ERK and Akt induced by IGF-1”. Further, in the series on AMP kinase in PC3 cells, the “phosphorylation (activation) of AMP kinase” value is “increased phosphorylation (activation) of AMP kinase”. The “interaction of HNK and SAHA (additive model)” value in series [2] (HNK 10-50 μM with SAHA 2 μM, 24 hours) is “synergistic effect”. Moreover, in series [2] (with paclitaxel 250 nM, doxorubicin 300 nM, 4-HT 100 nM), the “interaction of HNK and the other drugs tested (additive model)” value is “Additive effect”. In addition, the tumor growth result in the series on MDA-MB-231 cells (2 mg HNK (100 mg/kg) daily i.p., four weeks, p<0.02 from week 2) is on record as “complete arrest of tumor growth”. For the same compound, the “tolerability in the animals” value in the series on MDA-MB-231 cells (therapeutically beneficial doses) is “well tolerated by the animals”. Moreover, the “percent of viable cells, combination with TSA compared with TSA alone” value in series [3] is given as “significant decrease in the percent of viable cells”.

These data come from patent US20080300298A1, “Honokiol Derivates For the Treatment of Proliferative Disorders” (priority 2005, published 2008).
